Data from patent publication US11000033B2, “Ketone or oxime compound, and herbicide” (NISSAN CHEMICAL CORPORATION, priority 2014, dated 2021).

How the values were obtained:
Type in all cases: in vivo
[1] = test system: wheat; test: Test Example 4: effect on crop by soil treatment (symbol e); details: application herbicide amount 320 g/ha
Outline: (§1)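 Crop seed is sown in spots together with several weed species in a box of sterilized diluvial soil. It is covered by about 1.5 cm of soil and kept in a greenhouse held between 25° C. and 30° C.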

[2] = test system: wheat; test: Test Example 5: effect on crop by foliage application, plastic box (symbol e); details: 320 g/ha, 3 weeks after application
Outline: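 A greenhouse held between 25° C. and 30° C. was used to grow plants sown spot-wise, beneath ~1.5 cm of soil, in boxes of sterilized diluvial soil.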

[3] = test system: Echinochloa crus-galli var. crus-galli; test: Test Example 4: herbicidal effect by soil treatment (symbol H); details: application herbicide amount 320 g/ha
Outline: (§2)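 Seeds were sown in sterilized diluvial soil, covered with about 1.5 cm of soil, and the soil surface was sprayed with a water-diluted emulsion of the compound at a predetermined rate. Plants grew in a greenhouse at 25° C. to 30° C.; effects were scored visually 3 weeks after application.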

[4] = test system: Amaranthus retroflexus; test: Test Example 5: herbicidal effect by foliage application, plastic box (symbol N); details: 320 g/ha, 3 weeks after application
Outline: (§3)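 Herbicide, formulated as an emulsion and diluted in water, is sprayed onto the aerial parts of 14-day seedlings. These were grown at 25° C. to 30° C. in sterilized diluvial soil; effects are graded after 3 weeks.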

[5] = test system: Alopecurus myosuroides; test: Test Example 4: herbicidal effect by soil treatment (symbol J); details: application herbicide amount 320 g/ha
Outline: as §2

[6] = test system: Echinochloa oryzacola Vasing.; test: Test Example 1: herbicidal activity, application before weed generation in submerged conditions (symbol A); details: application herbicide amount 320 g/ha
Outline: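 Application before weed emergence: an aqueous dilution of the emulsion formulation was poured onto the surface of 4 cm-deep floodwater on the day of sowing. Effect was judged after 3 weeks (greenhouse, 25–30 °C).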

[7] = test system: soybean; test: Test Example 4: effect on crop by soil treatment (symbol d); details: application herbicide amount 320 g/ha
Outline: as §1

[8] = test system: beet; test: Test Example 4: effect on crop by soil treatment (symbol f); details: application herbicide amount 320 g/ha
Outline: as §1

[9] = test system: Echinochloa oryzacola Vasing.; test: Test Example 2: herbicidal activity, application during weed generation in submerged conditions (symbol A); details: Table 23; application herbicide amount 320 g/ha; grade 0-5 by criteria of Test Example 1
Outline: (§4)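 Each pot contained alluvial soil under 4 cm of water with seeds of all three weeds sown together. Following growth at 25° C. to 30° C. to the one- to two-leaf stage, the floodwater received diluted emulsion at a predetermined amount; visual assessment followed at 3 weeks.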

[10] = test system: Alopecurus myosuroides; test: Test Example 5: herbicidal effect by foliage application, plastic box (symbol J); details: 320 g/ha, 3 weeks after application
Outline: as §3

[11] = test system: Monochoria vaginalis; test: Test Example 2: herbicidal activity, application during weed generation in submerged conditions (symbol C); details: Table 23; application herbicide amount 320 g/ha; grade 0-5 by criteria of Test Example 1
Outline: as §4

[12] = test system: Cyperus difformis; test: Test Example 3: herbicidal effect by foliage application, Wagner pot (symbol E); details: application herbicide amount 320 g/ha
Outline: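 Seeds sown in alluvial soil kept under 0.1–0.5 cm water, greenhouse 25–30 °C; 14 d growth. Leaves treated by small sprayer with water-diluted emulsion at a predetermined rate. Effect graded by set scale, 3 weeks.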

SMILES | e: wheat, effect on crop grade [1] | e: wheat, effect on crop (criteria of Test Example 1) [2] | H: Echinochloa crus-galli var. crus-galli, herbicidal effect grade [3] | N: Amaranthus retroflexus, herbicidal effect (criteria of Test Example 1) [4] | J: Alopecurus myosuroides, herbicidal effect grade [5] | Herbicidal effect grade, A: Echinochloa oryzacola Vasing. [6] | d: soybean, effect on crop grade [7] | f: beet, effect on crop grade [8] | Herbicidal effect grade, A: Echinochloa oryzacola Vasing. [9] | J: Alopecurus myosuroides, herbicidal effect (criteria of Test Example 1) [10] | Herbicidal effect grade, C: Monochoria vaginalis [11] | herbicidal effect on E, grade 0-5 [12]
CON=C(C)CC1CC(O)=C(c2c(C)cc(OC)cc2C)C1=O (stereo not drawn) [6-055] | 0 (Herbicidal ratio of 5% or lower (almost no effect)) | 3 (Herbicidal ratio of 40% or higher and lower than 70%) | 5 (Herbicidal ratio of 90% or more (almost completely withered)) | 0 (Herbicidal ratio of 5% or lower (almost no effect)) | 4 (Herbicidal ratio of 70% or higher and lower than 90%) | 4 (Herbicidal ratio of 70% or higher and lower than 90%) | 0 (Herbicidal ratio of 5% or lower (almost no effect)) | 0 (Herbicidal ratio of 5% or lower (almost no effect)) | 5 (Herbicidal ratio of 90% or more (almost completely withered)) | 5 (Herbicidal ratio of 90% or more (almost completely withered)) | 0 (Herbicidal ratio of 5% or lower (almost no effect)) | 5 (Herbicidal ratio of 90% or more (almost completely withered))
CON=C(C)CC1CC(O)=C(c2c(C)cc(C(C)=NOC)cc2C)C1=O (stereo not drawn) [6-065] | 5 (Herbicidal ratio of 90% or more (almost completely withered)) | 5 (Herbicidal ratio of 90% or more (almost completely withered)) | 5 (Herbicidal ratio of 90% or more (almost completely withered)) | 0 (Herbicidal ratio of 5% or lower (almost no effect)) | 5 (Herbicidal ratio of 90% or more (almost completely withered)) | 4 (Herbicidal ratio of 70% or higher and lower than 90%) | 0 (Herbicidal ratio of 5% or lower (almost no effect)) | 2 (Herbicidal ratio of 20% or higher and lower than 40%) | 5 (Herbicidal ratio of 90% or more (almost completely withered)) | 5 (Herbicidal ratio of 90% or more (almost completely withered)) | 2 (Herbicidal ratio of 20% or higher and lower than 40%) | 5 (Herbicidal ratio of 90% or more (almost completely withered))
CCc1cc(-c2ccc(Cl)cc2)cc(C)c1C1=C(O)CC(CC(C)=NOC)C1=O (stereo not drawn) [6-066] | 4 (Herbicidal ratio of 70% or higher and lower than 90%) | 5 (Herbicidal ratio of 90% or more (almost completely withered)) | 5 (Herbicidal ratio of 90% or more (almost completely withered)) | 3 (Herbicidal ratio of 40% or higher and lower than 70%) | 5 (Herbicidal ratio of 90% or more (almost completely withered)) | 5 (Herbicidal ratio of 90% or more (almost completely withered)) | 0 (Herbicidal ratio of 5% or lower (almost no effect)) | 0 (Herbicidal ratio of 5% or lower (almost no effect)) | 5 (Herbicidal ratio of 90% or more (almost completely withered)) | 5 (Herbicidal ratio of 90% or more (almost completely withered)) | 0 (Herbicidal ratio of 5% or lower (almost no effect)) | 5 (Herbicidal ratio of 90% or more (almost completely withered))
CON=C(C)CC1CC(O)=C(c2c(C)cc(-n3cccn3)cc2C)C1=O (stereo not drawn) [6-073] | 2 (Herbicidal ratio of 20% or higher and lower than 40%) | 3 (Herbicidal ratio of 40% or higher and lower than 70%) | 5 (Herbicidal ratio of 90% or more (almost completely withered)) | 0 (Herbicidal ratio of 5% or lower (almost no effect)) | 2 (Herbicidal ratio of 20% or higher and lower than 40%) | 4 (Herbicidal ratio of 70% or higher and lower than 90%) | 0 (Herbicidal ratio of 5% or lower (almost no effect)) | 0 (Herbicidal ratio of 5% or lower (almost no effect)) | 4 (Herbicidal ratio of 70% or higher and lower than 90%) | 5 (Herbicidal ratio of 90% or more (almost completely withered)) | 1 (Herbicidal ratio of 5% or higher and lower than 20%) | 5 (Herbicidal ratio of 90% or more (almost completely withered))
CON=C(C)CC1CC(O)=C(c2c(C)cc(-n3cncn3)cc2C)C1=O (stereo not drawn) [6-074] | 0 (Herbicidal ratio of 5% or lower (almost no effect)) | 0 (Herbicidal ratio of 5% or lower (almost no effect)) | 0 (Herbicidal ratio of 5% or lower (almost no effect)) | 0 (Herbicidal ratio of 5% or lower (almost no effect)) | 0 (Herbicidal ratio of 5% or lower (almost no effect)) | 1 (Herbicidal ratio of 5% or higher and lower than 20%) | 0 (Herbicidal ratio of 5% or lower (almost no effect)) | 0 (Herbicidal ratio of 5% or lower (almost no effect)) | 1 (Herbicidal ratio of 5% or higher and lower than 20%) | 0 (Herbicidal ratio of 5% or lower (almost no effect)) | 0 (Herbicidal ratio of 5% or lower (almost no effect)) | 2 (Herbicidal ratio of 20% or higher and lower than 40%)
CON=C(C)CC1CC(O)=C(c2c(C)cc(C)cc2SC)C1=O (stereo not drawn) [6-075] | 0 (Herbicidal ratio of 5% or lower (almost no effect)) | 2 (Herbicidal ratio of 20% or higher and lower than 40%) | 0 (Herbicidal ratio of 5% or lower (almost no effect)) | 0 (Herbicidal ratio of 5% or lower (almost no effect)) | 4 (Herbicidal ratio of 70% or higher and lower than 90%) | 4 (Herbicidal ratio of 70% or higher and lower than 90%) | 0 (Herbicidal ratio of 5% or lower (almost no effect)) | 0 (Herbicidal ratio of 5% or lower (almost no effect)) | 1 (Herbicidal ratio of 5% or higher and lower than 20%) | 5 (Herbicidal ratio of 90% or more (almost completely withered)) | 1 (Herbicidal ratio of 5% or higher and lower than 20%) | 3 (Herbicidal ratio of 40% or higher and lower than 70%)
CON=C(C)CC1CC(O)=C(c2c(C)cc(Br)cc2OC)C1=O (stereo not drawn) [6-076, 2-(4-bromo-2-methoxy-6-methylphenyl)-3-hydroxy-5-{2-(methoxyimino)propyl}cyclopent-2-enone] | 0 (Herbicidal ratio of 5% or lower (almost no effect)) | 5 (Herbicidal ratio of 90% or more (almost completely withered)) | 5 (Herbicidal ratio of 90% or more (almost completely withered)) | 1 (Herbicidal ratio of 5% or higher and lower than 20%) | 0 (Herbicidal ratio of 5% or lower (almost no effect)) | 5 (Herbicidal ratio of 90% or more (almost completely withered)) | 0 (Herbicidal ratio of 5% or lower (almost no effect)) | 0 (Herbicidal ratio of 5% or lower (almost no effect)) | 5 (Herbicidal ratio of 90% or more (almost completely withered)) | 5 (Herbicidal ratio of 90% or more (almost completely withered)) | 1 (Herbicidal ratio of 5% or higher and lower than 20%) | 5 (Herbicidal ratio of 90% or more (almost completely withered))
